Experiments:
Setaria faberi (SETFA) [1] = test: Example B post-emergence herbicidal activity, glasshouse pot test; type: in vivo; conditions: 312 h, evaluated after 13 days, read-out: SETFA post-emergence activity (100=total damage to plant; 0=no damage to plant); for pest or weed control at 1000 g/ha: rate 1000 g/ha; for pest or weed control at 250 g/ha: rate 250 g/ha
Method: (§1) Seeds of a variety of test species are sown in standard soil in pots. After cultivation for one day (pre-emergence) or after 8 days cultivation (post-emergence) under controlled conditions in a glasshouse (at 24/16° C., day/night; 14 hours light; 65% humidity), the plants are sprayed with an aqueous spray solution derived from the formulation of the technical active ingredient in acetone/water (50:50) solution containing 0.5% Tween 20 (polyoxyethelyene sorbitan monolaurate, CAS RN 9005-64-5). The test plants are then grown in a glasshouse under controlled conditions in a glasshouse (at 24/16° C., day/night; 14 hours light; 65% humidity) and watered twice daily. After 13 days for pre and post-emergence, the test is evaluated (100=total damage to plant; 0=no damage to plant). Test Plants: Setaria faberi (SETFA), Alopecurus myosuroides (ALOMY), Echinochloa crus-galli (ECHCG), Avena fatua (AVEFA)

[2] = tested on: Echinochloa crus-galli (ECHCG); test: as above; type: in vivo; conditions: 312 h, evaluated after 13 days, read-out: ECHCG post-emergence activity (100=total damage to plant; 0=no damage to plant); for pest or weed control at 1000 g/ha: rate 1000 g/ha; for pest or weed control at 250 g/ha: rate 250 g/ha
Method: as §1

Avena fatua (AVEFA) [3] = test: as above; type: in vivo; conditions: 312 h, evaluated after 13 days, read-out: AVEFA post-emergence activity (100=total damage to plant; 0=no damage to plant); for pest or weed control at 1000 g/ha: rate 1000 g/ha; for pest or weed control at 250 g/ha: rate 250 g/ha
Method: as §1

[4] = tested on: Alopecurus myosuroides (ALOMY); test: as above; type: in vivo; conditions: 312 h, evaluated after 13 days, read-out: ALOMY post-emergence activity (100=total damage to plant; 0=no damage to plant); for pest or weed control at 1000 g/ha: rate 1000 g/ha; for pest or weed control at 250 g/ha: rate 250 g/ha
Method: as §1

Setaria faberi (SETFA) [5] = test: Example A pre-emergence herbicidal activity, glasshouse pot test; type: in vivo; conditions: 480 h, rate 250 g/ha, evaluated 20 days after spraying, read-out: SETFA pre-emergence activity (100=total damage to plant; 0=no damage to plant)
Method: (§2) Monocotyledonous and dicotyledonous test plants are sown in standard soil in pots. After cultivation for one day (pre-emergence) or after 10 days cultivation (post-emergence) under controlled conditions in a glasshouse, the plants are sprayed with an aqueous spray solution derived from the formulation of the technical active ingredient in 0.6 ml acetone and 45 ml formulation solution containing 10.6% Emulsogen EL (Registry number 61791-12-6), 42.2% N-methylpyrrolidone, 42.2% dipropylene glycol monomethyl ether (Registry number 34590-94-8) and 0.2% X-77 (Registry number 11097-66-8). The test plants are then grown in a greenhouse under optimum conditions until, 15 days later for post-emergence and 20 days for pre-emergence, the test is evaluated (100=total damage to plant; 0=no damage to plant). Test Plants: Alopecurus myosuroides (ALOMY), Avena fatua (AVEFA), Lolium perenne (LOLPE), Setaria faberi (SETFA), Digitaria sanguinalis (DIGSA), Echinochloa crus-galli (ECHCG) Pre-Emergence Activity

[6] = tested on: Echinochloa crus-galli (ECHCG); test: as above; type: in vivo; conditions: 480 h, rate 250 g/ha, evaluated 20 days after spraying, read-out: ECHOG pre-emergence activity (100=total damage to plant; 0=no damage to plant)
Method: as §2

Avena fatua (AVEFA) [7] = test: as above; type: in vivo; conditions: 480 h, rate 250 g/ha, evaluated 20 days after spraying, read-out: AVEFA pre-emergence activity (100=total damage to plant; 0=no damage to plant)
Method: as §2

[8] = tested on: Digitaria sanguinalis (DIGSA); test: as above; type: in vivo; conditions: 480 h, rate 250 g/ha, evaluated 20 days after spraying, read-out: DIGSA pre-emergence activity (100=total damage to plant; 0=no damage to plant)
Method: as §2

[9] = tested on: Alopecurus myosuroides (ALOMY); test: as above; type: in vivo; conditions: 480 h, rate 250 g/ha, evaluated 20 days after spraying, read-out: ALOMY pre-emergence activity (100=total damage to plant; 0=no damage to plant)
Method: as §2

Lolium perenne (LOLPE) [10] = test: as above; type: in vivo; conditions: 480 h, rate 250 g/ha, evaluated 20 days after spraying, read-out: LOLPE pre-emergence activity (100=total damage to plant; 0=no damage to plant)
Method: as §2

Setaria faberi (SETFA) [11] = test: Example B pre-emergence herbicidal activity, glasshouse pot test; type: in vivo; conditions: 312 h, first table (headed Post-Emergence, taken as pre-emergence), evaluated after 13 days, read-out: SETFA activity (100=total damage to plant; 0=no damage to plant); for pest or weed control at 1000 g/ha: rate 1000 g/ha; for pest or weed control at 250 g/ha: rate 250 g/ha
Method: as §1

[12] = tested on: Echinochloa crus-galli (ECHCG); test: as above; type: in vivo; conditions: 312 h, first table (headed Post-Emergence, taken as pre-emergence), evaluated after 13 days, read-out: ECHCG activity (100=total damage to plant; 0=no damage to plant); for pest or weed control at 1000 g/ha: rate 1000 g/ha; for pest or weed control at 250 g/ha: rate 250 g/ha
Method: as §1

Avena fatua (AVEFA) [13] = test: as above; type: in vivo; conditions: 312 h, first table (headed Post-Emergence, taken as pre-emergence), evaluated after 13 days, read-out: AVEFA activity (100=total damage to plant; 0=no damage to plant); for pest or weed control at 1000 g/ha: rate 1000 g/ha; for pest or weed control at 250 g/ha: rate 250 g/ha
Method: as §1

[14] = tested on: Alopecurus myosuroides (ALOMY); test: as above; type: in vivo; conditions: 312 h, first table (headed Post-Emergence, taken as pre-emergence), evaluated after 13 days, read-out: ALOMY activity (100=total damage to plant; 0=no damage to plant); for pest or weed control at 1000 g/ha: rate 1000 g/ha; for pest or weed control at 250 g/ha: rate 250 g/ha
Method: as §1

Setaria faberi (SETFA) [15] = test: Example A post-emergence herbicidal activity, glasshouse pot test; type: in vivo; conditions: 360 h, rate 125 g/ha, evaluated 15 days after spraying, read-out: SETFA post-emergence activity (100=total damage to plant; 0=no damage to plant)
Method: as §2, with “Post-Emergence” for “Pre-Emergence”

[16] = tested on: Echinochloa crus-galli (ECHCG); test: as above; type: in vivo; conditions: 360 h, rate 125 g/ha, evaluated 15 days after spraying, read-out: ECHOG post-emergence activity (100=total damage to plant; 0=no damage to plant)
Method: as §2, with “Post-Emergence” for “Pre-Emergence”

Avena fatua (AVEFA) [17] = test: as above; type: in vivo; conditions: 360 h, rate 125 g/ha, evaluated 15 days after spraying, read-out: AVEFA post-emergence activity (100=total damage to plant; 0=no damage to plant)
Method: as §2, with “Post-Emergence” for “Pre-Emergence”

[18] = tested on: Digitaria sanguinalis (DIGSA); test: as above; type: in vivo; conditions: 360 h, rate 125 g/ha, evaluated 15 days after spraying, read-out: DIGSA post-emergence activity (100=total damage to plant; 0=no damage to plant)
Method: as §2, with “Post-Emergence” for “Pre-Emergence”

[19] = tested on: Alopecurus myosuroides (ALOMY); test: as above; type: in vivo; conditions: 360 h, rate 125 g/ha, evaluated 15 days after spraying, read-out: ALOMY post-emergence activity (100=total damage to plant; 0=no damage to plant)
Method: as §2, with “Post-Emergence” for “Pre-Emergence”

Lolium perenne (LOLPE) [20] = test: as above; type: in vivo; conditions: 360 h, rate 125 g/ha, evaluated 15 days after spraying, read-out: LOLPE post-emergence activity (100=total damage to plant; 0=no damage to plant)
Method: as §2, with “Post-Emergence” for “Pre-Emergence”

Row | SMILES | melting point [°C] | pest or weed control at 1000 g/ha (Setaria faberi (SETFA) [1]) [%] | pest or weed control at 1000 g/ha [2] [%] | pest or weed control at 1000 g/ha (Avena fatua (AVEFA) [3]) [%] | pest or weed control at 1000 g/ha [4] [%] | pest or weed control at 1000 g/ha (Setaria faberi (SETFA) [11]) [%] | pest or weed control at 1000 g/ha [12] [%] | pest or weed control at 1000 g/ha (Avena fatua (AVEFA) [13]) [%] | pest or weed control at 1000 g/ha [14] [%] | other results
1 | CCOC(=O)OC1=C(c2c(C)cc(C)cc2C)C(=O)NC12CCN(OC)CC2 [Compound P18] |  | 100 | 100 | 90 | 100 | 100 | 100 | 90 | 100 | pest or weed control at 250 g/ha (Setaria faberi (SETFA) [5]): 20%; pest or weed control at 250 g/ha [6]: 30%; pest or weed control at 250 g/ha (Avena fatua (AVEFA) [7]): 70%; pest or weed control at 250 g/ha [8]: 20%; pest or weed control at 250 g/ha [9]: 60%; pest or weed control at 250 g/ha (Lolium perenne (LOLPE) [10]): 70%; pest or weed control at 125 g/ha (Setaria faberi (SETFA) [15]): 60%; pest or weed control at 125 g/ha [16]: 80%; pest or weed control at 125 g/ha (Avena fatua (AVEFA) [17]): 60%; pest or weed control at 125 g/ha [18]: 80%; pest or weed control at 125 g/ha [19]: 70%; pest or weed control at 125 g/ha (Lolium perenne (LOLPE) [20]): 70%
2 | CCOC(=O)OC1=C(c2ccc(Br)cc2Cl)C(=O)NC12CCN(OC)CC2 [Compound P66] | 199 to 201 |  |  |  |  |  |  |  |  | pest or weed control at 250 g/ha (Setaria faberi (SETFA) [1]): 90%; pest or weed control at 250 g/ha [2]: 100%; pest or weed control at 250 g/ha (Avena fatua (AVEFA) [3]): 70%; pest or weed control at 250 g/ha [4]: 90%; pest or weed control at 250 g/ha (Setaria faberi (SETFA) [11]): 10%; pest or weed control at 250 g/ha [12]: 0%; pest or weed control at 250 g/ha (Avena fatua (AVEFA) [13]): 10%; pest or weed control at 250 g/ha [14]: 30%
3 | CON1CCC2(CC1)NC(=O)C(c1ccc(Br)cc1C)=C2OC(=O)C(C)(C)C [Compound P69] | 239 to 240 |  |  |  |  |  |  |  |  | pest or weed control at 250 g/ha (Setaria faberi (SETFA) [1]): 90%; pest or weed control at 250 g/ha [2]: 90%; pest or weed control at 250 g/ha (Avena fatua (AVEFA) [3]): 60%; pest or weed control at 250 g/ha [4]: 90%; pest or weed control at 250 g/ha (Setaria faberi (SETFA) [11]): 100%; pest or weed control at 250 g/ha [12]: 90%; pest or weed control at 250 g/ha (Avena fatua (AVEFA) [13]): 30%; pest or weed control at 250 g/ha [14]: 40%
4 | CON1CCC2(CC1)NC(=O)C(c1cc(-c3ccc(Cl)cc3)ccc1C)C2=O (stereo not drawn) [Compound T9] |  | 100 | 100 | 90 | 80 |  |  |  |  | pest or weed control at 250 g/ha (Setaria faberi (SETFA) [5]): 0%; pest or weed control at 250 g/ha [6]: 10%; pest or weed control at 250 g/ha (Avena fatua (AVEFA) [7]): 60%; pest or weed control at 250 g/ha [8]: 0%; pest or weed control at 250 g/ha [9]: 0%; pest or weed control at 250 g/ha (Lolium perenne (LOLPE) [10]): 30%; pest or weed control at 125 g/ha (Setaria faberi (SETFA) [15]): 90%; pest or weed control at 125 g/ha [16]: 100%; pest or weed control at 125 g/ha (Avena fatua (AVEFA) [17]): 80%; pest or weed control at 125 g/ha [18]: 100%; pest or weed control at 125 g/ha [19]: 90%; pest or weed control at 125 g/ha (Lolium perenne (LOLPE) [20]): 50%

Second part, led by results:

Row | melting point [°C] | SMILES | pest or weed control at 1000 g/ha (Setaria faberi (SETFA) [1]) [%] | pest or weed control at 1000 g/ha [2] [%] | pest or weed control at 1000 g/ha (Avena fatua (AVEFA) [3]) [%] | pest or weed control at 1000 g/ha [4] [%] | pest or weed control at 1000 g/ha (Setaria faberi (SETFA) [11]) [%] | pest or weed control at 1000 g/ha [12] [%] | pest or weed control at 1000 g/ha (Avena fatua (AVEFA) [13]) [%] | pest or weed control at 1000 g/ha [14] [%] | other results
5 | 221 to 223 | CON1CCC2(CC1)NC(=O)C(c1ccc(Cl)cc1Cl)C2=O (stereo not drawn) [Compound T2] | 100 | 100 | 90 | 100 | 30 | 0 | 40 | 60 | 
6 | 257 to 260 | CON1CCC2(CC1)NC(=O)C(c1c(Cl)cccc1Cl)C2=O (stereo not drawn) [Compound T3] | 70 | 0 | 0 | 60 | 80 | 0 | 0 | 40 | 
7 | 260 to 264 | CON1CCC2(CC1)NC(=O)C(c1c(C)cc(Br)cc1C)C2=O (stereo not drawn) [Compound T12] | 90 | 80 | 90 | 80 | 90 | 20 | 80 | 70 | 

From patent US8722578B2, “Spiroheterocyclic pyrrolidinedione herbicidal compositions” (Syngenta Participations AG, priority 2008, dated 2014)
